Consider one molecule from patent US20230210829A1, “REJUVENATION OF AGED TISSUES BY INHIBITION OF THE PGE2 DEGRADING ENZYME, 15-PGDH” (The Board of Trustees of the Leland Stanford Junior …, priority 2020, published 2023).

Experiment [1] deals with aged mice. Kind of experiment: Hematoxylin and Eosin (H&E) histological evaluation of spleen in aged mice treated with 15-PGDH inhibitor. The class given is in vivo. The settings on record: aged (25 months) mice, intraperitoneally for 4 weeks, H&E staining. The procedure: FIG. 3. […] Hematoxylin and Eosin (H&E) staining of spleen in young vehicle treated (4 months), aged vehicle treated (25 months) and aged SW033291 treated (25 months) intraperitoneally for 4 weeks.
(§1) All experiments and protocols were performed in compliance with the institutional guidelines of Stanford University and Administrative Panel on Laboratory Animal Care (APLAC). Aged (>24 mo.) mice C57BL/6 were obtained from the US National Institute on Aging (NIA) for aged muscle studies, and young (2-4 mo.) wild-type C57BL/6 mice from Jackson Laboratory.

For experiment [2], the system named is aged mice. Kind of experiment: Luminex assay of mouse sera (serum cytokine levels) in aged mice treated with 15-PGDH inhibitor. The class given is in vivo. The settings on record: aged (25 months) mice, 4 weeks intraperitoneal administration.
Excerpt: FIGS. 4A-4H. Inhibition of 15-PGDH rejuvenates systemic cytokine levels. Serum levels of (FIG. 4A) interleukin-10 (IL10), (FIG. 4B) interleukin-6 (IL6), (FIG. 4C) betacellulin (BTC), (FIG. 4D) granulocyte-macrophage colony-stimulating factor (GM-CSF), (FIG. 4E) interleukin-13 (IL13), (FIG. 4F) tumor necrosis factor-alpha (TNFA), (FIG. 4G) interleukin-1 beta (IL1B), and (FIG. 4H) interleukin-22 (IL22) measured in young vehicle (4 months), young SW033291 (4 months), aged vehicle treated (25 months), and aged SW033291 treated (25 months) mice by Luminex bead arrays. MFI—Mean fluorescence intensity.
as §1
Aging is associated with an altered state of inflammation and is associated with changes in circulating levels of various cytokines. Altered cytokine signaling in aging can initiate a cascade of dysregulated signaling pathways that negatively impact the function of various organs. Age-dysregulated cytokine signaling has been implicated in increased mortality, frailty, cellular senescence, vascular aging, cognitive decline, atherosclerosis, risk of osteoarthritis, and loss of bone mineral density in aging. […] Furthermore, a reduction of IL6 is associated with reduced adipose tissue inflammation and reduced cellular senescence. […] Increased IL22 levels are anti-inflammatory in colonic tissue and are beneficial for inflammatory bowel disease and colitis. […] This systemic effect in turn ameliorates the function of other tissues.

With `CCCC[S+]([O-])c1sc2nc(-c3cccs3)cc(-c3ccccc3)c2c1N` (stereo not drawn) [SW033291, 2-(butylsulfinyl)-4-phenyl-6-(thiophen-2-yl)thieno[2,3-b]pyridin-3-amine], in the experiment with aged mice [1], the “cell density within the splenic follicles” value is listed as “increased cell density within the follicles”, the “follicular structure of spleen” value is “restored” and the “marginal zone of spleen” value is listed as “reestablished”. Besides, the splenic morphology entry with aged mice [1] (vs aged vehicle and young) is “rejuvenated the splenic morphology”. In the experiment on aged mice [2] (FIG. 4A), the “serum level of interleukin-10 (IL10)” value is listed as “restored to levels similar to those of young mice”. Further, the “serum level of interleukin-6 (IL6)” value in the experiment on aged mice [2] (FIG. 4B) is reported as “restored to levels similar to those of young mice”. Also, the “serum level of betacellulin (BTC)” value with aged mice [2] (FIG. 4C) was “restored to levels similar to those of young mice”. In addition, the “serum level of granulocyte-macrophage colony-stimulating factor (GM-CSF)” value with aged mice [2] (FIG. 4D) is listed as “restored to levels similar to those of young mice”. Also, the “serum level of interleukin-13 (IL13)” value in the experiment with aged mice [2] (FIG. 4E) is given as “restored to levels similar to those of young mice”. Also, the “serum level of tumor necrosis factor-alpha (TNFA)” value with aged mice [2] (FIG. 4F) is on record as “further increased”. Moreover, in the experiment on aged mice [2] (FIG. 4G), the “serum level of interleukin-1 beta (IL1B)” value is reported as “further increased”. The “serum level of interleukin-22 (IL22)” value with aged mice [2] (FIG. 4H) is “further increased”.
